Measured values published in the supplement of paper PMC10307832.

How the values were obtained:
Assay in all cases: relative viability (nuclei count vs DMSO), 5 days (fraction); higher = more cells survive
[1] = compound: N=C1NC(=O)/C(=C/c2ccc(O)cc2)S1 [Mirin] + CS(=O)(=O)N1CCN(Cc2cc3nc(-c4cccc5[nH]ncc45)nc(N4CCOCC4)c3s2)CC1 [Pictilisib] (partner 1 µM)
Procedure, shortened: (§1)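 Lung cancer cell lines in 1536-well plates got either a single drug or a fixed anchor-drug dose together with five library-drug doses (not always all listed) in √10 steps, by pin tool, on the day after seeding. Nuclei were counted after 5 days, and relative viability is the treated-to-vehicle ratio of nuclei counts. Values are medians of duplicate plates.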

[2] = compound: N=C1NC(=O)/C(=C/c2ccc(O)cc2)S1 [Mirin] + O=C(CCCCCCC(=O)Nc1ccccc1)NO [Vorinostat] (partner 1 µM)
Procedure, shortened: as §1

[3] = compound: CCn1c(-c2nonc2N)nc2cnc(Oc3cccc(NC(=O)c4ccc(OCCN5CCOCC5)cc4)c3)cc21 + COc1cccc2cc(-c3nc([C@H]4CC[C@H](C(=O)O)CC4)n4ncnc(N)c34)[nH]c12 [OSI-027] (partner 0.5 µM)
Procedure, shortened: as §1

[4] = compound: CCC1=CN=CN=C1N2CCN(CC2)CC3=NC4=C(N3)C=C(C=C4)C(F)(F)F + Cc1cc(Nc2cc(N3CCN(C)CC3)nc(Sc3ccc(NC(=O)C4CC4)cc3)n2)n[nH]1 [Tozasertib] (partner 0.1 µM)
Procedure, shortened: as §1

Cell Line	relative viability ([1]; first compound 0.25 µM)	relative viability ([1]; first compound 0.7906 µM)	relative viability ([1]; first compound 2.5 µM)	relative viability ([1]; first compound 7.906 µM)	relative viability ([1]; first compound 25 µM)	relative viability ([2]; first compound 0.25 µM)	relative viability ([2]; first compound 0.7906 µM)	relative viability ([2]; first compound 2.5 µM)	relative viability ([2]; first compound 7.906 µM)	relative viability ([2]; first compound 25 µM)	relative viability ([3]; first compound 0.04 µM)	relative viability ([3]; first compound 0.1265 µM)	relative viability ([3]; first compound 0.4 µM)	relative viability ([3]; first compound 1.265 µM)	relative viability ([3]; first compound 4 µM)	relative viability ([4]; first compound 0.04 µM)	relative viability ([4]; first compound 0.1265 µM)	relative viability ([4]; first compound 0.4 µM)	relative viability ([4]; first compound 1.265 µM)	relative viability ([4]; first compound 4 µM)
NCI-H322M	0.5	0.419	0.492	0.567	0.583	1	0.87	0.93	1.28	1.11	0.826	0.667	0.416	0.562	0.611	0.485	0.446	0.485	0.469	0.488
NCI-H358	0.357	0.288	0.415	0.315	0.323	0.698	0.729	0.698	0.737	0.453	0.84	0.73	0.579	0.816	0.523	0.0937	0.0935	0.101	0.112	0.109
NCI-H441	0.531	0.521	0.528	0.37	0.362	0.805	0.933	0.806	0.752	0.896	0.772	0.721		0.513	0.472	0.501	0.752	0.506	0.583	0.622
NCI-H460	0.347	0.152	0.347	0.333	0.235	0.709	0.824	0.666	0.687	0.685	0.741	0.561	0.364	0.163	0.0569	0.437	0.403	0.404	0.315	0.4
NCI-H520	0.275	0.284	0.274	0.202	0.181	0.67	0.807	0.729	0.561	0.527	0.354	0.36	0.279	0.332	0.224	0.423	0.432	0.403		0.452
NCI-H596	0.447	0.391	0.43	0.361	0.345	0.727	0.474	0.641	0.758	0.589	0.755	0.715	0.591	0.528	0.615	0.921	0.949	0.758		1.04
NCI-H647	0.413		0.417		0.295	0.4	0.536	0.586	0.623	0.48	0.591	0.393	0.323	0.34	0.278	0.253	0.296	0.375	0.206	0.393
NCI-H650	0.835		0.945		0.744	0.484	0.338	0.414	0.389	0.448	0.601	0.39	0.254	0.238	0.265	0.78	0.76	0.765	0.616	0.753
NCI-H661		0.329	0.499		0.332	0.789	0.839	0.74	0.776	0.77	0.562	0.593	0.445	0.467	0.33	0.371	0.348	0.362	0.322	0.366
NCI-H727	0.353	0.443	0.458	0.501	0.515	0.912	1.27	1.24	1.23	1.19	1.01	0.924	0.441	0.612	0.818	0.646	0.621	0.648	0.42	0.619
NCI-H838	0.465	0.398	0.562	0.54	0.421	0.773	0.751	0.765	0.802	0.82	0.338	0.294	0.228	0.242	0.194	0.278	0.253	0.306	0.24	0.268
NCI-H1355	0.48	0.254	0.419	0.427	0.505	0.608	0.696	0.683	0.605	0.699	0.477	0.385	0.197	0.306	0.312	0.566	0.513	0.495	0.413	0.421
NCI-H1395	0.578		0.617	0.549	0.512	0.809		0.822	0.811	0.938	0.785	0.512	0.525	0.351	0.384	0.733	0.807	0.715	0.698	0.756
NCI-H1437	0.525	0.436	0.487	0.272	0.165	0.88	0.955	0.875	0.896	1.02	0.946	0.742	0.553	0.74	0.662	0.419	0.364	0.366	0.367	0.294
NCI-H1650	0.576	0.494	0.592	0.447	0.385	0.497	0.656	0.51	0.482	0.495	0.666	0.678	0.551	0.535	0.656	0.482	0.471	0.273		0.331
NCI-H1651	0.62	0.597	0.573	0.488	0.554	0.224	0.554	0.478	0.567	0.591	0.745	0.684	0.596	0.57	0.404	0.82	0.728	0.687	0.583	0.714
NCI-H1666	0.445	0.64	0.365	0.36	0.324	1.01	1.23	1.01	0.928	0.938	1.02	0.995	0.74	0.796	0.668	0.556	0.723	0.575	0.569	0.635

Cell Line	relative viability ([1]; first compound 0.25 µM)	relative viability ([1]; first compound 0.7906 µM)	relative viability ([1]; first compound 2.5 µM)	relative viability ([1]; first compound 7.906 µM)	relative viability ([1]; first compound 25 µM)	relative viability ([2]; first compound 0.25 µM)	relative viability ([2]; first compound 0.7906 µM)	relative viability ([2]; first compound 2.5 µM)	relative viability ([2]; first compound 7.906 µM)	relative viability ([2]; first compound 25 µM)	relative viability ([3]; first compound 0.04 µM)	relative viability ([3]; first compound 0.1265 µM)	relative viability ([3]; first compound 0.4 µM)	relative viability ([3]; first compound 1.265 µM)	relative viability ([3]; first compound 4 µM)	relative viability ([4]; first compound 0.04 µM)	relative viability ([4]; first compound 0.1265 µM)	relative viability ([4]; first compound 0.4 µM)	relative viability ([4]; first compound 1.265 µM)	relative viability ([4]; first compound 4 µM)
NCI-H1734	0.427	0.376	0.445	0.444	0.394	0.797	0.688	0.783	0.693	0.735	0.647	0.591	0.303	0.335	0.319	0.267	0.248	0.253	0.283	0.261
NCI-H1755	0.475	0.336	0.479	0.395	0.356	0.761	0.62	0.863	0.59	0.824	0.714	0.738	0.466	0.476	0.45	0.627	0.503	0.596	0.515	0.521
NCI-H1793	0.387	0.327	0.236	0.311	0.482	0.907		0.672	0.949	0.832	0.31	0.265	0.194	0.248	0.196	0.352	0.325	0.303		0.256
NCI-H1915	0.98		1.04	0.916	0.935	0.527	0.498	0.558	0.341	0.52	0.695	0.626	0.476	0.259	0.252	0.458	0.412	0.429	0.356	0.356
NCI-H1944	0.346		0.328	0.335	0.359	0.511	0.494	0.649	0.449	0.511	0.413	0.397	0.236	0.214	0.236	0.269	0.249	0.212	0.218	0.223
NCI-H1975	0.307	0.251	0.302	0.355	0.282	0.696	0.777	0.718	0.703	0.733	0.616	0.465	0.322	0.196	0.208	0.732	0.785	0.679	0.61	0.689
NCI-H1993	0.748	0.698	0.893	0.818	0.782	1.07	0.627	0.89	0.947	0.737	0.612	0.624	0.573	0.569	0.539	0.627	0.509	0.597	0.566	0.493
NCI-H2009	0.919	0.706	0.871	0.66	0.6	0.716	0.875	0.738	0.673	0.784	0.753	0.597	0.39	0.361	0.322	0.778	0.698	0.727	0.746	0.678
NCI-H2023	0.252	0.258	0.19	0.29	0.214	0.683	0.724	0.653	0.628	0.595	0.497	0.47	0.261	0.299	0.269	0.33	0.383	0.343	0.297	0.325
NCI-H2085	0.417	0.398	0.484	0.462	0.468	0.805	0.842	0.853	0.922	0.804	1.02	0.679	0.602	0.664	0.551	0.815	0.71	0.794	0.698	0.633
NCI-H2087	0.833	0.669	0.818	0.708	0.788	0.661	0.748	0.729	0.573	0.774	0.824	0.719	0.418	0.535	0.551	0.26	0.243	0.221	0.182	0.146
NCI-H2126	0.533	0.406	0.465	0.456	0.448	0.852	0.645	0.679	0.792	0.713	0.811	0.754			0.899	0.837	0.812	0.813	0.734	0.832
NCI-H2170	0.327	0.217	0.281	0.247	0.253	0.621	0.828	0.906	0.665	0.859	0.708	0.703	0.641	0.555	0.555	0.719	0.74	0.648	0.662	0.643
NCI-H2228	0.397	0.396	0.37	0.356	0.346	0.576	0.96	0.957	0.724	1	0.662	0.637	0.386	0.545	0.405	0.252	0.249	0.22	0.335	0.253
NCI-H2347	0.564	0.622	1.71	0.749	0.595	0.569	0.645	0.641	0.494	0.66	0.502	0.505	0.426	0.334	0.333	0.405	0.454	0.579	0.389	0.513
NCI-H2405	0.465	0.51	0.401	0.307	0.317	0.943		1.11	1.03	1.21	0.763	0.582	0.185	0.326	0.354	0.779	0.759	0.741		0.685
